Results as given in ChEMBL document CHEMBL5096161, “Medulloblastoma drugs in development: Current leads, trials and drawbacks” (Eur J Med Chem, 2021).
Values belong to the molecule of their own block, whether it stands above or below them.

How the values were obtained:
[1] = Cytotoxicity against human D384 Med cells assessed as reduction in cell viability incubated for 48 hrs by Cell TiterGlo luminescent assay; format: functional, cell-based; conditions: pooled result: one value given for 10 cell lines, strains, targets or settings
Daoy [2] = experiment: Antiproliferative activity against human Daoy cells assessed as inhibition of cell growth incubated for 72 hrs by Alamar blue dye based fluorescence spectrophotometric assay; format: functional
[3] = Antiproliferative activity against human pateint derived Medulloblastoma cells assessed as inhibition of cell growth incubated for 72 hrs by Alamar blue dye based fluorescence spectrophotometric assay; format: functional
[4] = Inhibition of hedgehog signalling in mouse NIH3T3 cells cotransfected with Gli/RE luciferase reporter gene assessed as Gli luciferase activity preincubated for 15 to 30 mins followed by ShhN stimulation and after 28 hrs by Steady-Glo reagent based luciferase assay
Daoy [5] = experiment: Antiproliferative activity against human Daoy cells assessed as reduction in cell viability incubated for 48 hrs by MTT assay; format: functional, cell-based
D283 Med = experiment: Antiproliferative activity against human D283 Med cells assessed as reduction in cell viability incubated for 48 hrs by MTT assay; format: functional, cell-based
[6] = Inhibition of hedgehog signalling in mouse Shh Light II cells co-transfected with Gli firefly luciferase assessed as inhibition of Gli luciferase expression measured after 30 hrs by luciferase reporter assay; format: cell-based
[7] = Half life in CD-1 mouse plasma at 10 mg/kg, po administered as single dose; format: ADME, organism-based
Protein smoothened [8] = target: Protein smoothened (Homo sapiens, UniProt Q99835); experiment: Inhibition of endogenous human Smo overexpressed in mouse C3H 10T1/2 cells cotransfected with Gli reporter gene assessed as Gli luciferase activity by dual luciferase assay; format: functional, cell-based
Protein smoothened [9] = target: Protein smoothened (Mus musculus, UniProt P56726); experiment: Inhibition of endogenous mouse Smo overexpressed in mouse C3H 10T1/2 cells cotransfected with Gli reporter gene assessed as Gli luciferase activity by dual luciferase assay; format: functional, cell-based
[10] = Inhibition of hedgehog signalling in mouse Shh Light II cells co-transfected with Gli firefly and Renilla-luciferase assessed as reduction in SAG-induced Gli luciferase activity incubated for 24 hrs by dual luciferase reporter assay; format: cell-based
[11] = Cytotoxicity against human D425 Med cells expressing Glt1-tTA:TRE-MYCN/Luc (GTML) assessed as reduction in cell viability incubated for 72 hrs by Resazurin assay; format: functional, cell-based
ONS-76 [12] = experiment: Antitumor activity against human ONS-76 cells xenografted in athymic nude mouse assessed as inhibition of tumor growth at 100 mg/kg, po QD for 9 days; format: functional; conditions: ONS-76, 216 h, time 9 day, read-out: TGI
[13] = Anticancer activity against human UW228 cells assessed as reduction in cell viability incubated for 72 hrs by CCK assay; format: functional, cell-based; conditions: UW228, 72 h
[14] = Anticancer activity against human UW426 cells assessed as reduction in cell viability incubated for 72 hrs by CCK assay; format: functional, cell-based; conditions: UW426, 72 h
[15] = Anticancer activity against human MED-MEB-8A cells assessed as reduction in cell viability incubated for 72 hrs by CCK assay; format: functional, cell-based
[16] = Inhibition of hedge hog pathway in mouse Sufu-KO-LIGHT cells expressing firefly luciferase reporter gene assessed as inhibition of Gli transcription incubated for 16 hrs by Bright-Glo luciferase assay; format: cell-based
Daoy [17] = experiment: Antiproliferative activity against human Daoy cells assessed as reduction in cell viability by MTT assay; format: functional, cell-based
[18] = Anticancer activity against mouse Ptch+/- MB21 cells assessed as reduction in cell viability incubated for 72 hrs by CellTiter-Glo luminescent assay; format: functional, cell-based
[19] = Anticancer activity against mouse Ptch+/- MB55 cells assessed as reduction in cell viability incubated for 72 hrs by CellTiter-Glo luminescent assay; format: functional, cell-based
[20] = Anticancer activity against mouse Ptch+/- Trp53-/- MB53 cells assessed as reduction in cell viability incubated for 72 hrs by CellTiter-Glo luminescent assay; format: functional, cell-based
[21] = Inhibition of Hedgehog signaling in mouse NIH3T3 cells expressing GRE-Luc reporter gene assessed luciferase activity incubated for 48 hrs in presence of SAG by Bright-Glo luciferase assay; format: cell-based
Daoy [22] = experiment: Antiproliferative activity against human Daoy cells assessed as inhibition of cell proliferation incubated for 72 hrs by MTS assay; format: functional, cell-based
[23] = Antiproliferative activity against human UW228 cells assessed as inhibition of cell proliferation incubated for 72 hrs by MTS assay; format: functional, cell-based; conditions: UW228, 72 h
Daoy [24] = experiment: Antiproliferative activity against human Daoy cells assessed as inhibition of cell growth incubated for 24 to 96 hrs by MTT assay; format: functional; conditions: time 24-96 hrs
ONS-76 [25] = experiment: Antiproliferative activity against human ONS-76 cells assessed as inhibition of cell growth incubated for 24 to 96 hrs by MTT assay; format: functional; conditions: time 24-96 hrs

Sequence of Protein smoothened (Homo sapiens, UniProt Q99835) (Q99835 whole entry): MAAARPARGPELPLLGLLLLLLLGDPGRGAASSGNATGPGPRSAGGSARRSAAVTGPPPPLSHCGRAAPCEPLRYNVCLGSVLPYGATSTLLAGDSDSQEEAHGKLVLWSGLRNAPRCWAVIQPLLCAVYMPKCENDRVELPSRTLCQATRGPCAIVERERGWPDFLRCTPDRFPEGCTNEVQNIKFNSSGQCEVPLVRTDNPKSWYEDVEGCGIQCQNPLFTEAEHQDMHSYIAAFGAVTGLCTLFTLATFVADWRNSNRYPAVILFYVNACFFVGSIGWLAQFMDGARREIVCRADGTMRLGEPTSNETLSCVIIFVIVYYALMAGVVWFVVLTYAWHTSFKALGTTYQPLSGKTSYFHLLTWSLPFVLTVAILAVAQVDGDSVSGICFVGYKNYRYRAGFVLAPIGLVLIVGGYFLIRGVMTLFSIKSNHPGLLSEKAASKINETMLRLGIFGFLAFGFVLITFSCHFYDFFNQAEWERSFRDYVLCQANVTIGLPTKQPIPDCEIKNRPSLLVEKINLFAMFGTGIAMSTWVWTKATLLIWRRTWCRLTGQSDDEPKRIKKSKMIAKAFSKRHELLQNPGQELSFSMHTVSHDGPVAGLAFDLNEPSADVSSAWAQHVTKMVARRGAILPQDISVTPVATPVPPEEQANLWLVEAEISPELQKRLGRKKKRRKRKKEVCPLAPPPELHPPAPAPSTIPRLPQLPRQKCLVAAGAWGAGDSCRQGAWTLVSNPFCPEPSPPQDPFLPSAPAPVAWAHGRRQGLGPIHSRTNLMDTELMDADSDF
Sequence of Protein smoothened (Mus musculus, UniProt P56726) (P56726 whole entry): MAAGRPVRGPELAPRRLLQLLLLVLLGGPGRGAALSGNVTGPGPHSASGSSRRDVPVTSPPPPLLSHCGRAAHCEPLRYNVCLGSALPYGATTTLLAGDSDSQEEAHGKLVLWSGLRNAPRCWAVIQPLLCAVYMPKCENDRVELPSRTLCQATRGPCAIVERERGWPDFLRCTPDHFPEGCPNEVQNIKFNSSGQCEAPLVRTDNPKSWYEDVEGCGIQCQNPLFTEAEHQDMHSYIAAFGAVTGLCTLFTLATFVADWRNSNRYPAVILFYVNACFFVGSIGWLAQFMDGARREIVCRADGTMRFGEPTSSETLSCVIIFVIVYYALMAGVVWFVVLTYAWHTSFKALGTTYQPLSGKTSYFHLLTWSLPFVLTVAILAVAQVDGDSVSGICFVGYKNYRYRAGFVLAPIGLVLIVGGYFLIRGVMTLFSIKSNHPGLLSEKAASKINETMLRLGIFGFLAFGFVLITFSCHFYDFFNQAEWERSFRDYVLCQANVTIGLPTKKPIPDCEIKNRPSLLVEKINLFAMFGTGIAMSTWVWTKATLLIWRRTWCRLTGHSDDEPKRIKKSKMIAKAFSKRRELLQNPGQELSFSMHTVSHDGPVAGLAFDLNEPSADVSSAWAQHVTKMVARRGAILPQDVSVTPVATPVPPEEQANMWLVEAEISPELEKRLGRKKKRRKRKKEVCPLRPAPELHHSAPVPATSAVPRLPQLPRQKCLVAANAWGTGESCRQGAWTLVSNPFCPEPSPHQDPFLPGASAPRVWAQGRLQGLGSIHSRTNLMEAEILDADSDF

SMILES: Nc1cc(C(F)(F)F)c(-c2cc(N3CCOCC3)nc(N3CCOCC3)n2)cn1 [BUPARLISIB]
IC50 [1]: 279 nM

IC50 [4]: 374 nM
SMILES: Cc1cn(-c2cc(NC(=O)c3ccc(C)c(Nc4nccc(-c5cccnc5)n4)c3)cc(C(F)(F)F)c2)cn1 [NILOTINIB]
IC50 (Daoy [2]): 6000 nM
IC50 [3]: 5000 nM

SMILES: Cn1cc(CNCC2CCN(c3ncc(C(=O)NO)cn3)CC2)c2ccccc21 [QUISINOSTAT]
IC50 (Daoy [5]): < 100 nM
IC50 (D283 Med): < 200 nM

IC50 [6]: 60 nM
SMILES: C[C@H](CO)N1C[C@H](C)[C@H](CN(C)S(=O)(=O)c2ccc(Cl)cc2Cl)Oc2c(NC(=O)C3CC3)cccc2C1=O

half-life [7]: 22 h
IC50 (Protein smoothened [8]): 8 nM
IC50 (Protein smoothened [9]): 27 nM
SMILES: C[C@@H]1CN(c2ccc(C(=O)Nc3ccc(Cl)c(NC(=O)c4cccc(Cl)c4)c3)cn2)C[C@H](C)N1

IC50 [10]: 30 nM
SMILES: COc1cc2c(cc1-c1c(C)noc1C)ncc1[nH]c(=O)n([C@H](C)c3ccccn3)c12

SMILES: CNC(=O)c1nn(C)c2c1C(C)(C)Cc1cnc(Nc3ccc(N4CCN(C)CC4)cc3)nc1-2 [MILCICLIB]
IC50 [11]: 940 nM

SMILES: COc1cc2c(Oc3ccc(NC(=O)C4(C(=O)Nc5ccc(F)cc5)CC4)cc3F)ccnc2cc1OCCCN1CCOCC1 [FORETINIB]
inhibition in vivo at 100 mg/kg (ONS-76 [12]): 50%

SMILES: Cc1[nH]c2ccccc2c1CCNCc1ccc(/C=C/C(=O)NO)cc1 [PANOBINOSTAT]
IC50 [13]: 54 nM
IC50 [14]: 67 nM
IC50 [15]: 46 nM

IC50 [16]: 1420 nM
SMILES: CCOc1ccc(-[n+]2cc(-c3ccc(Br)cc3)n3c2CCc2ccccc2-3)cc1

SMILES: COc1cc2c3c(c4ccc(O)cc4c2cc1OC)C[C@@H]1CCCN1C3
IC50 (Daoy [17]): 0.013 nM

SMILES: O=C(O)c1ccc2c(c1)nc(Nc1cccc(Cl)c1)c1ccncc12 [SILMITASERTIB]
IC50 [18]: 2500 nM
IC50 [19]: 2500 nM
IC50 [20]: 2500 nM

IC50 [21]: 7.5 nM
SMILES: Cc1cnc(-c2cc(N3CCc4nc(N5CCC(O)CC5)ncc4C3)ccc2Cl)c(C)c1

SMILES: COc1ccc(Cn2c3ncnc4c(ncn4Cc4ccc(OC)cc4)c-3nc2=O)cc1
IC50 (Daoy [22]): 2500 nM
IC50 [23]: 3500 nM

SMILES: CC1=C(/C=C/C(C)=C/C=C/C(C)=C/C(=O)Nc2ccc(O)cc2)C(C)(C)CCC1 [FENRETINIDE]
GI50 (Daoy [24]): 5000 nM
GI50 (ONS-76 [25]): 2000 nM
